Measurements from patent US20250066328A1, “PARP7 INHIBITORS” (Gilead Sciences, Inc., priority 2023, published 2025).

Tested on: STAT1 (phosphorylated at Tyr701) in NCI-H1373 cells
Assay: Phospho-STAT1 (Tyr701) LANCE Ultra TR-FRET detection assay in NCI-H1373 cells
Format: cell-based
Settings: Homo sapiens, NCI-H1373, 48 h, 48 hours incubation, induction of pSTAT1, normalized to 10 uM positive control and DMSO, 4-parameter fit, read-out: NH1373 pSTAT1 EC50
Procedure: Phospho-STAT1 (Tyr701 LANCE Ultra TR-FRET Detection Assay
LANCE Ultra phospho-STAT1 (Tyr701) kits are designed for the detection of phosphorylated STAT1 in cell lysates using a simple, homogeneous LANCE Ultra sandwich assay (Cat. #TRF4028M). This assay is intended for assessing compound induction of endogenous levels of cellular STAT1 (phosphorylated at Tyr701) in NCI-H1373 cells. The NCI-H1373 cells are cultured in RPMI 1640 media containing 10% heat inactivated FBS, GlutaMAX, 1% Penicillin-Streptomycin. An Echo acoustic liquid handler is used to transfer 60 nanoliters of compound dilutions using the Echo Qualified, 384-well polypropylene microplate clear flat bottom source plates into a Greiner (#781080) cell culture microplate. NCI-H1373 cells are seeded into these compound-spotted culture plates at 30,000 cells/well in a 60 uL volume in growth media. The plates are incubated in a 5% CO2 humidified incubator at 37° C. for 48 hours. […] Briefly, […] of supplemented lysis buffer is added to each well and allowed to shake for 1 hour at 400 rpm. Next, 5 ul of remixed antibody solutions (vol/vol) prepared in detection buffer are added to each well and allowed to incubate at room temperature overnight. After spinning the plate down at 300 rpm for 1 min, the plate is read on an EnVision plate reader set up for Eu^3+ Cryptate and fluorescence emission is measured at two different wavelengths (665 nm and 620 nm). The HTRF ratio is then calculated ([…]) for each well to determine the amount of pSTAT1 in the cell lysate, and the data is then normalized to 10 uM (S)-5-((1-(3-oxo-3-(4-(5-(trifluoromethyl)pyrimidin-2-yl)piperazin-1-yl)propoxy)propan-2-yl)amino)-4-(trifluoromethyl)pyridazin-3(2H)-one positive and DMSO negative controls. The values were then plotted as a function of compound concentration and a 4-parameter fit was applied to derive the EC50 values.

## C[C@@H](C[C@@H](F)Cn1cc(Br)c2cc(-c3ncc(C(C)(C)O)cn3)c(F)cc2c1=O)Oc1cn[nH]c(=O)c1C(F)(F)F [Example 68, 4-bromo-7-fluoro-2-((2R,4S)-2-fluoro-4-((6-oxo-5-(trifluoromethyl)-1,6-dihydropyridazin-4-yl)oxy)pentyl)-6-(5-(2-hydroxypropan-2-yl)pyrimidin-2-yl)isoquinolin-1(2H)-one]
  EC50: 3.7 nM

## COc1cnc(-c2cc3ccn(C[C@H](F)C[C@H](C)Nc4cn[nH]c(=O)c4C(F)(F)F)c(=O)c3cc2F)nc1 (single isomer, unassigned) [Example 6]
  EC50: 0.809 nM

## O=c1[nH]ncc(N[C@@H](CO)C[C@@H](F)Cn2ccc3cc(-c4ncc(Cl)cn4)c(F)cc3c2=O)c1C(F)(F)F [Example 124]
  EC50: 11.1 nM

## C[C@@H](C[C@@H](F)Cn1ccc2cc(-c3ncc([C@H](F)CF)cn3)c(F)cc2c1=O)Nc1cn[nH]c(=O)c1C(F)(F)F [Example 93]
  EC50: 1000 nM

## COc1cnc(-c2cc3c(F)cn(C[C@@H](F)C[C@H](C)Oc4cn[nH]c(=O)c4C(F)(F)F)c(=O)c3cc2F)nc1 [Example 63]
  EC50: 2.05 nM

## C[C@@H](C[C@@H](F)Cn1ccc2cc(-c3ncc(C(F)(F)F)cn3)c(F)c(F)c2c1=O)Nc1cn[nH]c(=O)c1C(F)(F)F [Example 32]
  EC50: 0.912 nM

## C[C@@H](CC(F)Cn1cnc2cc(-c3ncc(C(C)(C)O)cn3)c(F)cc2c1=O)Oc1cn[nH]c(=O)c1C(F)(F)F (stereo partly shown) [Example 38]
  EC50: 42.4 nM

## C[C@@H](C[C@@H](F)Cn1ccc2cc(-c3ncc([C@](C)(O)C(F)F)cn3)c(F)cc2c1=O)Nc1cn[nH]c(=O)c1C(F)(F)F [Example 87]
  EC50: 5.36 nM

## O=c1[nH]ncc(N[C@@H](CO)C[C@@H](F)Cn2ccc3cc(-c4ncc(C(F)F)cn4)c(F)cc3c2=O)c1C(F)(F)F [Example 125]
  EC50: 41.2 nM

## C[C@@H](C[C@@H](F)CN1CCc2cc(-c3ncc(C(F)(F)F)cn3)c(F)cc2C1=O)Nc1cn[nH]c(=O)c1C(F)(F)F [Example 132, 7-fluoro-2-[(2R,4S)-2-fluoro-4-[[6-oxo-5-(trifluoromethyl)-1H-pyridazin-4-yl]amino]pentyl]-6-[5-(trifluoromethyl)pyrimidin-2-yl]-3,4-dihydroisoquinolin-1-one]
  EC50: 2.7 nM

## C[C@@H](C[C@@H](F)Cn1ccc2cc(-c3ncc([C@H](O)C(F)F)cn3)c(F)cc2c1=O)Nc1cn[nH]c(=O)c1C(F)(F)F [Example 81]
  EC50: 5.83 nM

## C[C@@H](C[C@H](O)Cn1ccc2cc(-c3ncc(C(F)F)cn3)c(F)cc2c1=O)Oc1cn[nH]c(=O)c1C(F)(F)F (single isomer, unassigned) [Example 20]
  EC50: 33 nM

## C[C@@H](C[C@H](F)Cn1ccc2cc(-c3ncc(C(F)F)cn3)c(F)cc2c1=O)Nc1cn[nH]c(=O)c1C(F)(F)F (single isomer, unassigned) [Example 5]
  EC50: 47.6 nM

## C[C@@H](CC(O)Cn1ccc2cc(-c3ncc(C(F)(F)F)cn3)c(F)cc2c1=O)Oc1cn[nH]c(=O)c1C(F)(F)F (stereo partly shown) [Example 16]
  EC50: 1.12 nM

## C[C@@H](C[C@@H](F)Cn1ccc2cc(-c3cnccn3)c(F)cc2c1=O)Nc1cn[nH]c(=O)c1C(F)(F)F [Example 104]
  EC50: 36.4 nM

## C[C@@H](C[C@@H](F)Cn1cc(F)c2cc(-c3ncc(C(F)(F)F)cn3)c(F)cc2c1=O)Oc1cn[nH]c(=O)c1C(F)(F)F [Example 55]
  EC50: 135 nM

## CC(C)(O)c1cnc(-c2cc3ccn(C[C@H](F)C[C@H](COC(F)F)Oc4cn[nH]c(=O)c4C(F)(F)F)c(=O)c3cc2F)nc1 [Example 122]
  EC50: 1.97 nM

## [2H]C([2H])([2H])Oc1cnc(-c2cc3ncn(C[C@H](F)C[C@H](C)Nc4cn[nH]c(=O)c4C(F)(F)F)c(=O)c3cc2F)nc1 [Example 115]
  EC50: 7.27 nM

## C[C@@H](C[C@H](F)Cn1cnc2cc(-c3ncc(C(F)(F)F)cn3)c(F)cc2c1=O)Oc1cn[nH]c(=O)c1C(F)(F)F [Example 58]
  EC50: 35.3 nM

## O=c1[nH]ncc(O[C@@H](CCCn2ccc3cc(-c4ncc(C(F)(F)F)cn4)c(F)cc3c2=O)COC(F)F)c1C(F)(F)F [Example 120]
  EC50: 1000 nM

## C[C@@H](C[C@H](F)Cn1cc(F)c2cc(-c3ncc(C(F)F)cn3)c(F)cc2c1=O)Oc1cn[nH]c(=O)c1C(F)(F)F [Example 62]
  EC50: 1.69 nM

## C[C@@H](C[C@@H](F)Cn1cnc2cc(-c3ncc(C(F)(F)F)cn3)c(F)cc2c1=O)Nc1cn[nH]c(=O)c1C(F)(F)F [Example 71]
  EC50: 2.17 nM

## CC(F)(F)c1cnc(-c2cc3ccn(CC(F)CC(COC(F)F)Nc4cn[nH]c(=O)c4C(F)(F)F)c(=O)c3cc2F)nc1 (stereo not shown) [Example 131]
  EC50: 5.34 nM

## C[C@@H](C[C@@H](O)Cn1ccc2cc(-c3ncc(C(F)F)cn3)c(F)cc2c1=O)Oc1cn[nH]c(=O)c1C(F)(F)F (single isomer, unassigned) [Example 19]
  EC50: 1.28 nM

## [2H]C([2H])([2H])Oc1cnc(-c2cc3ccn(C[C@H](F)C[C@H](C)Nc4cn[nH]c(=O)c4C(F)(F)F)c(=O)c3cc2F)nc1 [Example 27]
  EC50: 1.05 nM

## C[C@@H](C[C@@H](F)Cn1ccc2cc(-c3ncc(C(F)(F)F)cc3F)c(F)cc2c1=O)Nc1cn[nH]c(=O)c1C(F)(F)F [Example 75]
  EC50: 4.51 nM

## C[C@@H](C[C@@H](F)Cn1ccc2cc(-c3ncc(C(F)F)c(N)n3)c(F)c(F)c2c1=O)Nc1cn[nH]c(=O)c1C(F)(F)F [Example 101]
  EC50: 4.36 nM

## C[C@@H](C[C@@H](F)Cn1ccc2cc(-c3ncc(C(F)F)c(N)n3)c(F)c(F)c2c1=O)Oc1cn[nH]c(=O)c1C(F)(F)F [Example 42]
  EC50: 0.836 nM

## C[C@@H](C[C@@H](F)Cn1ccc2cc(-c3ncc(C(O)C(F)(F)F)cn3)c(F)cc2c1=O)Nc1cn[nH]c(=O)c1C(F)(F)F (stereo partly shown) [Example 79]
  EC50: 5.05 nM

## COc1cnc(-c2cc3ccn(C[C@H](F)C[C@H](C)Nc4cn[nH]c(=O)c4C(F)(F)F)c(=O)c3c(F)c2F)nc1 [Example 99]
  EC50: 1.06 nM

## CC(C[C@H](C)Nc1cn[nH]c(=O)c1C(F)(F)F)Cn1ccc2cc(-c3ncc(C(F)(F)F)cn3)c(F)cc2c1=O (stereo partly drawn) [Example 116, 7-fluoro-2-((4S)-2-methyl-4-((6-oxo-5-(trifluoromethyl)-1,6-dihydropyridazin-4-yl)amino)pentyl)-6-(5-(trifluoromethyl)pyrimidin-2-yl)isoquinolin-1(2H)-one]
  EC50: 89.9 nM

## CC(C)(O)c1cnc(-c2cc3ccn(CCC[C@@H](COC(F)F)Oc4cn[nH]c(=O)c4C(F)(F)F)c(=O)c3cc2F)nc1 (single isomer, unassigned) [Example 34]
  EC50: 10000 nM

## C[C@@H](C[C@@H](F)Cn1ccc2cc(-c3ncc(F)cn3)c(F)cc2c1=O)Nc1cn[nH]c(=O)c1C(F)(F)F [Example 108]
  EC50: 2.9 nM

## CC(C)(O)c1cnc(-c2cc3ccn(CC(F)CC(COC(F)F)Nc4cn[nH]c(=O)c4C(F)(F)F)c(=O)c3cc2F)nc1 (stereo not shown) [Example 129]
  EC50: 8.24 nM

## C[C@@H](C[C@@H](F)Cn1ccc2cc(-c3ncc(C(C)(C)O)cn3)c(F)cc2c1=O)Oc1cn[nH]c(=O)c1C(F)(F)F (single isomer, unassigned) [Example 51]
  EC50: 3.28 nM

## C[C@@H](C[C@@H](F)Cn1ccc2cc(-c3ncc(C(F)(F)F)cn3)c(F)cc2c1=O)Oc1cn[nH]c(=O)c1C(F)(F)F [Example 12]
  EC50: 45.1 nM

## C[C@@H](C[C@@H](F)Cn1ccc2cc(-c3ncc(OC(F)(F)CO)cn3)c(F)cc2c1=O)Nc1cn[nH]c(=O)c1C(F)(F)F [Example 82]
  EC50: 2.15 nM

## C[C@@H](C[C@@H](F)Cn1ccc2cc(-c3ncc(C(C)(C)F)cn3)c(F)cc2c1=O)Nc1cn[nH]c(=O)c1C(F)(F)F [Example 96]
  EC50: 1.61 nM

## C[C@@H](C[C@@H](F)Cn1ccc2cc(-c3ncc(C(F)F)cn3)c(F)c(F)c2c1=O)Oc1cn[nH]c(=O)c1C(F)(F)F [Example 50]
  EC50: 0.46 nM

## C[C@@H](C[C@@H](F)Cn1ccc2cc(-c3ncc(OC(F)(F)F)cn3)c(F)cc2c1=O)Nc1cn[nH]c(=O)c1C(F)(F)F [Example 77]
  EC50: 2.5 nM

## O=c1[nH]ncc(NC(COC(F)F)CC(F)Cn2ccc3cc(-c4ncc(C(F)F)cn4)c(F)cc3c2=O)c1C(F)(F)F (stereo not shown) [Example 130]
  EC50: 2.24 nM

## Cc1cnc(-c2cc3ccn(C[C@H](F)C[C@H](C)Nc4cn[nH]c(=O)c4C(F)(F)F)c(=O)c3cc2F)nc1 [Example 110]
  EC50: 1.11 nM

## C[C@@H](C[C@H](F)Cn1cc(F)c2cc(-c3ncc(C(C)(C)O)cn3)c(F)cc2c1=O)Oc1cn[nH]c(=O)c1C(F)(F)F [Example 66]
  EC50: 91.6 nM

## C[C@@H](C[C@H](F)Cn1ccc2cc(-c3ncc(C(C)(C)O)cn3)c(F)cc2c1=O)Oc1cn[nH]c(=O)c1C(F)(F)F (single isomer, unassigned) [Example 61]
  EC50: 158 nM

## C[C@@H](C[C@@H](F)Cn1ccc2cc(-c3ncc(C(C)(C)C)cn3)c(F)cc2c1=O)Nc1cn[nH]c(=O)c1C(F)(F)F [Example 88]
  EC50: 1.29 nM

## C[C@@H](C[C@@H](F)Cn1ccc2cc(-c3ncc(OC(F)F)cn3)c(F)cc2c1=O)Nc1cn[nH]c(=O)c1C(F)(F)F [Example 97]
  EC50: 0.97 nM
